Holding throughout (assay type): cell-based
The test system of assay [1] is human pulmonary artery endothelial cells (HPAEC). The experiment in a line: Superoxide production of HPAEC treated with high glucose. The settings on record: 25 mM glucose 24 hr, 25 μM compound. The protocol:
(§1) Cos-Nox2, Cos-Nox1, human fibroblasts were cultured in DMEM, 10% FBS-supplemented media, human pulmonary artery endothelial cells were cultured in EBM2media containing growth factors (Lonza) and rat neonatal cardiomyocytes were cultured in DMEM/F12 (50/50) media supplemented with 5% horse serum, 100 μM BrdU and Insulin-Transferrin-Selenium (ITS, Gibco).
Superoxide (O2^•−) production from cell homogenates was calculated from the initial linear rate (over 10 min) of SOD-inhibitable cytochrome c reduction quantified at 550 nm using the extinction coefficient of 21.1 mM-1 cm-1 (Biotek Synergy 4 Hybrid Multi-Mode Microplate Reader). The oxidase assay buffer consisted of 65 mM sodium phosphate buffer (pH 7.0), 1 mM EGTA, 10 μM FAD, 1 mM MgCl2, 2 mM NaN3 and 0.2 mM cytochrome C.
Compounds 11g and 11h subsequently were tested in parenchymal cell lines where more than one Nox could be present and activated. Human pulmonary artery endothelial cells (HPAEC) were treated with high glucose (25 mM) for 24 hr in the presence or absence of the compounds. […] Under these conditions both compounds 11g and 11h attenuated the high glucose-stimulated superoxide production (FIG. 9).

For assay [2] the test system is unchanged. The experiment in a line: ROS production of HPAEC treated with angiotensin II. The note with it: angiotensin II 24 hrs, 25 μM compound, preliminary data. The protocol:
as §1

Assay [3] deals with T1, p47^phox association with Nox2 (cytochrome b558) (Homo sapiens, UniProt P14598).
T1 construct: expressed in transfected cells
T1 sequence (P14598 1-390): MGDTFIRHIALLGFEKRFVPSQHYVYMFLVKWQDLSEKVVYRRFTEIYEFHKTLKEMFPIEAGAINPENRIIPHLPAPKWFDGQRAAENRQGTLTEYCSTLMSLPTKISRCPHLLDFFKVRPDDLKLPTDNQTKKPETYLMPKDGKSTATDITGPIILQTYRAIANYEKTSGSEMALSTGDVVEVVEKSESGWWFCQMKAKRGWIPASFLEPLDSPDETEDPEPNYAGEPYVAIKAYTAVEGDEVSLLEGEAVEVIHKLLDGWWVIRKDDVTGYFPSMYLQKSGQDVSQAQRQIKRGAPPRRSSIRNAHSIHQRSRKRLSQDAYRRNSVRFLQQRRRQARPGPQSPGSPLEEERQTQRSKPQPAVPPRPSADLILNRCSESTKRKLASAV
The experiment in a line: Co-immunoprecipitation of Nox2/p47phox in Cos-Nox2 cells. The note with it: Cos-Nox2 cells pre-incubated with compound. As to the method: 300 μg of cell homogenates were diluted in 0.3 ml HBSS buffer and incubated with 1.25 μg of α-p47^phox antibody (Santa Cruz Biotechnology). After overnight incubation at 4° C. with constant agitation, 10 μl of Protein G-Agarose slurry were added to each sample to pull-down p47^phox: antibody complex. Beads were washed, boiled, run on PAGE-SDS gels and then blotted on nitrocellulose membrane. Western blot analysis was carried out using antibodies against p47^phox and Nox2. Bands were visualized using Odyssey software from Licor and then quantified using ImageJ software.
To interrogate a mode of Nox2 inhibition, in silico interaction analysis of pre-existing atomic structures was employed. […] To further investigate this type of interaction and inhibition, co-immunoprecipitation was used and p47^phox association with cytochrome b558 in Cos-Nox2 cells.

The next assay concerns the target T2, Nox1 hybrid system (Homo sapiens, UniProt Q9Y5S8).
T2 construct: Plasmids encoding full-length human cDNAs for Nox1 (pcDNA3.1-hNox1); expressed in transfected cells; host or cells: Cos cells, transient transfection
T2 sequence (Q9Y5S8 1-564): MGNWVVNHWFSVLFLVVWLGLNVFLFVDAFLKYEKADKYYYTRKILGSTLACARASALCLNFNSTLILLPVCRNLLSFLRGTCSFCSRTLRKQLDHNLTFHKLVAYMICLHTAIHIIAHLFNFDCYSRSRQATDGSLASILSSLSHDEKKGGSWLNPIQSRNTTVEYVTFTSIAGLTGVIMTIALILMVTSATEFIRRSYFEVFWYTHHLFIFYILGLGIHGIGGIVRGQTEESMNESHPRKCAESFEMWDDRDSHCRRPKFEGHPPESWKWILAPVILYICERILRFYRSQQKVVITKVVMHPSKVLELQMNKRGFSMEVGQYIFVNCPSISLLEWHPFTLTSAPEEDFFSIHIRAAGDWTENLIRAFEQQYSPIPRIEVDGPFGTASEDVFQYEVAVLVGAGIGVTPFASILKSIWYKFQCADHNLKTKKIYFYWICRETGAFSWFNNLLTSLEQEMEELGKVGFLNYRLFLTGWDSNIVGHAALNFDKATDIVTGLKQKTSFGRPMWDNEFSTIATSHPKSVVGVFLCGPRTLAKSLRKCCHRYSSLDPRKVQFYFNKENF
The experiment in a line: ROS production of transiently Nox1 hybrid system-transfected Cos cells treated with PMA. The note with it: 10 μM compound. As to the method:
Cell transfection was carried out using Lipofectamine LTX and Plus reagent (Invitrogen, Carlsbad, Calif., USA), according to the manufacturer's instructions. COS-22 cells were transiently co-transfected with pcDNA 3.1-hNox1, pCMVsport 6-hNOXA1 and pcDNA3.1-hNoxO1 (COS-Nox1/NOXO1/NOXA1 cells) or with pcDNA3.1/Hygro-hNox4 (COS-Nox4 cells). Cells were used 24 hr after transfection. Adherent cells were harvested by incubating with 0.05% trypsin/EDTA for 5 min at 37° C. Following addition of DMEM/10% FBS to neutralize the trypsin, the cells were pelleted by centrifugation at 1100×g for 5 min at 4° C. and used for the experiments.
Since p47^phox activation is important not only for Nox2 activity but also for Nox1 hybrid system present mainly in human endothelial cells, the effect of compounds 11g and 11h on ROS production of transiently Nox2-transfected (FIG. 13) or Nox1 hybrid system-transfected Cos cells (FIG. 14) treated with phorbol ester (PMA) was evaluated.

For assay [4], the system named is rat neonatal cardiomyocytes. The experiment in a line: ROS production of rat neonatal cardiomyocytes treated with high glucose. The settings on record: 25 mM glucose, 25 μM compound. As to the method: as §1
(§2) To evaluate the pre-clinical potential of compounds 11g and 11h, the effects of high levels of glucose, which induce the generation of reactive oxygen species in cardiomyocytes and may contribute to the development of cardiomyopathy in diabetes, were evaluated. […] Furthermore, both compound 11g and compound 11h were able to reduce cardiomyocyte hypertrophy associated with high glucose challenge (FIG. 16).

In assay [5] the test system is rat neonatal cardiomyocytes. The experiment in a line: Hypertrophy of rat neonatal cardiomyocytes treated with high glucose. The note with it: 25 mM glucose, 25 μM compound. The protocol: as §1
Hypertrophy was assessed by measurement of cardiomyocytes length using ImageJ public domain software (developed by the National Institutes of Health).
as §2

The structures appear in SMILES notation.

Regarding `C=C(C)CC1C2c3c(Br)cccc3C(CC2(C)C)N1CCCCC` (racemic) [Compound 11g, (±)-(1S,4R,9S)-5-Bromo-3,3-dimethyl-9-(2-methylallyl-10-pentyl-1,2,3,4-tetrahydro-1,4-(epiminomethano)naphthalene], the “High glucose-stimulated superoxide production” value in assay [1] was “attenuated”. Besides, in assay [2], the “AngII-stimulated ROS production” value is listed as “differential effect”. Further, in assay [3], the “Attenuation of PMA-promoted p47phox/Nox2 interaction (co-immunoprecipitation)” value is listed as 34.3±6.07%. Besides, the “PMA-stimulated ROS production, Nox1 hybrid system-transfected Cos cells” value on Nox1 hybrid system is reported as “inhibited”. The “High glucose-dependent ROS production in rat cardiomyocytes” value in assay [4] is on record as “ameliorated”. The “Cardiomyocyte hypertrophy with high glucose challenge” value in assay [5] is listed as “reduce”.
In the case of `C=C(C)CC1C2c3c(Br)cccc3C(CC2(C)C)N1Cc1cccs1` (racemic) [Compound 11h, (±)-(1S,4R,9S)-5-Bromo-3,3-dimethyl-9-(2-methylallyl)-10-(thiophen-2-ylmethyl)-1,2,3,4-tetrahydro-1,4-(epiminomethano)naphthalene], the “High glucose-stimulated superoxide production” value in assay [1] is “attenuated”. Moreover, the “AngII-stimulated ROS production” value in assay [2] is “differential effect”. Further, the “Attenuation of PMA-promoted p47phox/Nox2 interaction (co-immunoprecipitation)” value in assay [3] was 33.45±6.08%. Further, the “PMA-stimulated ROS production, Nox1 hybrid system-transfected Cos cells” value at Nox1 hybrid system is recorded as “did not significantly inhibit”. In assay [4], the “High glucose-dependent ROS production in rat cardiomyocytes” value is on record as “ameliorated”. Also, the “Cardiomyocyte hypertrophy with high glucose challenge” value in assay [5] is given as “reduce”.

The values above are taken from patent US10906876B2, “Tetrahydroisoquinolines as selective NADPH oxidase 2 inhibitors” (University of Pittsburgh—Of the Commonwealth System of …, priority 2013, dated 2021).
